The text below walks through data of patent US6887889B2 (Pharmacopeia Drug Discovery, Inc., priority 2001, dated 2005).

The Ki is the equilibrium dissociation constant of an inhibitor or competing ligand from its target. Higher therefore signals a looser hold on the target.

The target of the assay is T1, hMCHR (Homo sapiens, UniProt Q99705).
T1 construct: host or cells: CHO (Chinese hamster ovary) cells, membranes
T1 sequence (Q99705 whole entry): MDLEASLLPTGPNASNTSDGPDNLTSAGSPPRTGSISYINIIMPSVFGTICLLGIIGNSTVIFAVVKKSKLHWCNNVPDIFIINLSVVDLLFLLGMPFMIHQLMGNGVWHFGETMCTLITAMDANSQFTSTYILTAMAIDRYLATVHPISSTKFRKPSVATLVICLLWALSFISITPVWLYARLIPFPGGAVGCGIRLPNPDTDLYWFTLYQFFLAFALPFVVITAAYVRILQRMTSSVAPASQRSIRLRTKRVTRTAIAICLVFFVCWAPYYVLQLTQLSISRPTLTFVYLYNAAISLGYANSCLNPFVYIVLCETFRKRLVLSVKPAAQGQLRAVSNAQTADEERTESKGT
In words: MCH Assay PCOP Protocol: [125I]-MCH binding to hMCHR-CHO membranes, WGA-SPA beads. To be noted: hMCHR-CHO overexpressing membranes, 0.5 nM [125I]-MCH, 2 hours incubation. Here is the method: A reaction mixture of 10 μg hMCHR-CHO overexpressing membranes (from Receptor Biology, Inc., Beltville, Md., or internally produced) and 100 μg/well WGA-SPA beads (from Amersham Pharmacia Biotech, Inc., Piscataway, N.J.)/100 μL was prepared in MCHR assay buffer (25 mM HEPES, pH 7.4, 10 mM NaCl, 10 mM MgCl2, 5 mM MnCl2, 0.1%BSA). […] The assay plates were shaken for 5 minutes on a plate shaker, then incubated for 2 hours before cpm/well were determined in a Microbeta Trilux counter (from Perkin Elmer Wallac, Inc., Gaithersburg, Md.).
For the compound “3-Chloro-N-[4-(3′-cyano-biphenyl-4-yl)-1-cyclopropylmethyl-piperidin-4-ylmethyl]-4-fluoro-benzenesulfonamide [Example 11]”, the Ki lay within 101 to 5500 nM. As to `COCCN1CCC(CN(C)C(=O)Nc2cc(Cl)cc(Cl)c2)(c2ccc(-c3cccc(C#N)c3)cc2)CC1` [Example 88], the inhibitory constant (Ki) was 0.2 to 10 nM. Regarding `CCCCN1CCC(CNC(=O)Nc2cc(Cl)cc(Cl)c2)(c2ccc(-c3cccc(Cl)c3)cc2)CC1` [Example 113], the Ki lay within 11 to 100 nM.

The compound `COCCN1CCC(CNCc2cc(Cl)cc(Cl)c2)(c2ccc(-c3cccc(NC(C)=O)c3)cc2)CC1` [Example 135] displayed a Ki of 101 to 5500 nM. Regarding `COCCN1CCC(CNC(=O)Nc2ccc(F)c(Cl)c2)(c2ccc(-c3cccc(C#N)c3)cc2)CC1` [Example 90], the Ki lay within 0.2 to 10 nM.

Compound `CN(CC1(c2ccc(-c3cccc(C#N)c3)cc2)CCN(CC2CC2)CC1)C(=O)Nc1ccc(Cl)c(C(F)(F)F)c1` [Example 104] displayed a Ki of 11 to 100 nM.

The compound `CCCN1CCC(CNC(=O)Nc2cc(F)cc(F)c2)(c2ccc(-c3cccc(C#N)c3)cc2)CC1` [Example 102] registered an inhibition constant (Ki) of 0.2 to 10 nM.

With `CN1CCC2(CC1)CN(C(=O)Nc1ccc(F)c(Cl)c1)c1cccc(-c3cccc(C#N)c3)c12` [Example 75], the Ki was in the range of 101 to 5500 nM. The value for `CN1CCC(CNC(=O)Nc2cc(Cl)cc(Cl)c2)(c2ccc(-c3cc4ccccc4o3)cc2)CC1` [Example 40] was 101 to 5500 nM.

`N#Cc1cccc(-c2ccc(C3(CNC(=O)Nc4cc(Cl)cc(Cl)c4)CCN(CCC(F)(F)F)CC3)cc2)c1` [Example 118]: the Ki is 0.2 to 10 nM. The value for `CCCN1CCC(CNC(=O)Nc2cc(C(F)(F)F)ccc2Cl)(c2ccc(-c3cccc(Cl)c3)cc2)CC1` [Example 58] was 101 to 5500 nM; that for `N#Cc1cccc(-c2ccc(C3(CNC(=O)Nc4cc(Cl)cc(Cl)c4)CCN(C4CCOCC4)CC3)cc2)c1` [Example 109] was 0.2 to 10 nM. In turn, `N#Cc1cccc(-c2ccc(C3(CNC(=O)Nc4cc(C(F)(F)F)ccc4Cl)CCN(CC4CC4)CC3)cc2)c1` [Example 68] came in with a Ki of 11 to 100 nM. The value for `O=C(Nc1cc(Cl)cc(Cl)c1)N1CCC(CNCC2CC2)(c2ccc(-c3ccc4c(c3)OCO4)cc2)CC1` [Example 125] was 101 to 5500 nM. `CCCN1CCC(CNC(=O)Nc2ccc3c(c2)OCO3)(c2ccc(-c3cccc(C#N)c3)cc2)CC1` [Example 101] had a Ki of 11 to 100 nM. `CN1CCC(CN2CCN(c3ccc(F)c(F)c3)C2=O)(c2ccc(-c3cccc(C#N)c3)cc2)CC1` [Example 13] showed a Ki of 11 to 100 nM. For the compound `O=C(NCC1(c2ccc(-c3cccnc3)cc2)CCN(C2CCCC2)CC1)Nc1cc(Cl)cc(Cl)c1` [Example 20], the inhibition constant Ki is 0.2 to 10 nM. The value for `O=C(NCC1(c2ccc(-c3cccc(Cl)c3)cc2)CCN(C2CCOCC2)CC1)Nc1cc(Cl)cc(Cl)c1` [Example 114] was 101 to 5500 nM. Consider `CN(CC1(c2ccc(-c3cccc(C#N)c3)cc2)CCN(CC2CC2)CC1)C(=O)Nc1cc(F)cc(F)c1` [Example 97], for which the Ki is 11 to 100 nM. Take `N#Cc1cccc(-c2ccc(C3(CNC(=O)Nc4ccc(F)c(Cl)c4)CCN(CCC(F)(F)F)CC3)cc2)c1` [Example 117]: the Ki lay in the range of 0.2 to 10 nM. The value for `CN1CCC(CNC(=O)Nc2cc(F)cc(F)c2)(c2ccc(-c3cccc(Cl)c3)cc2)CC1` [Example 55] was 0.2 to 10 nM; that for `N#Cc1cccc(-c2ccc(C3(CNC(=O)Nc4cc(F)cc(F)c4)CCN(CC4CC4)CC3)cc2)c1` [Example 96] was 0.2 to 10 nM; that for `O=C(NCC1(c2ccc(-c3cccc(Cl)c3)cc2)CCN(CC2CC2)CC1)Nc1ccc(Cl)c(C(F)(F)F)c1` [Example 61] was 11 to 100 nM. The compound `COc1ccc(-c2ccc(C3(CNC(=O)Nc4cc(Cl)cc(Cl)c4)CCN(C)CC3)cc2)cn1` [Example 44] had an inhibition constant Ki of 11 to 100 nM. Compound `Cc1ccc(C2(CNC(=O)Nc3cc(Cl)cc(Cl)c3)CCN(CC3CC3)CC2)cc1` [Example 25] registered a Ki of 101 to 5500 nM. For the compound `CN1CCC(CNC(=O)Nc2cc(C(F)(F)F)ccc2Cl)(c2ccc(-c3cccc(C#N)c3)cc2)CC1` [Example 69], the Ki is 11 to 100 nM. On to `CN1CCC(CNC(=O)Cc2ccc(Cl)c(Cl)c2)(c2ccc(-c3cccc(C#N)c3)cc2)CC1` [Example 87], for which the Ki was in the range of 11 to 100 nM. For `CN1CCC(CNC(=O)Nc2ccc(F)cc2F)(c2ccc(-c3cccc(C#N)c3)cc2)CC1` [Example 9, 1-[4-(3′-Cyano-biphenyl-4-yl)-1-methyl-piperidin-4-ylmethyl]-3-(2,4-difluoro-phenyl)-urea], the Ki lay within 0.2 to 10 nM.

`O=C(NCC1(c2ccc(-c3cccc(Cl)c3)cc2)CCN(C2CCCC2)CC1)Nc1cc(Cl)cc(Cl)c1` [Example 77] showed a Ki of 0.2 to 10 nM. The value for `CN1CCC(CNC(=O)Nc2ccc(Cl)cc2C(F)(F)F)(c2ccc(-c3cccc(C#N)c3)cc2)CC1` [Example 67] was 101 to 5500 nM. In turn, `COCCN1CCC(CNC(=O)Nc2ccc(OC)c(Cl)c2)(c2ccc(-c3cccc(C#N)c3)cc2)CC1` [Example 95] showed a Ki of 11 to 100 nM.

Consider `N#Cc1cccc(-c2ccc(C3(CNC(=O)Nc4ccc(F)c(C(F)(F)F)c4)CCN(CC4CC4)CC3)cc2)c1` [Example 100], for which the Ki lay in the range of 0.2 to 10 nM. As to `N#Cc1cccc(-c2ccc(C3(CNC(=O)Nc4ccc(Cl)cc4C(F)(F)F)CCN(CC4CC4)CC3)cc2)c1` [Example 60], the Ki is 101 to 5500 nM.

Turning to `CN1CCC(CNC(=O)Nc2cc(Cl)cc(Cl)c2)(c2cccc(Cl)c2)CC1` [Example 24], the Ki was in the range of 101 to 5500 nM. For the compound `CC(C)COC(=O)NCC1(c2ccc(-c3cccc(C#N)c3)cc2)CCN(CC2CC2)CC1` [Example 12, [4-(3′-Cyano-biphenyl-4-yl)-1-cyclopropylmethyl-piperidin-4-ylmethyl]-carbamic acid isobutyl ester], the Ki was 101 to 5500 nM. `CN1CCC2(CC1)CN(C(=O)Nc1cc(Cl)cc(Cl)c1)c1ccc(-c3cccc(C#N)c3)cc12` [Example 37]: the Ki fell in the range of 11 to 100 nM.

Take `CC(=O)Nc1cccc(-c2ccc(C3(CNC(=O)Nc4cc(Cl)cc(Cl)c4)CCN(C4CCCCC4)CC3)cc2)c1` [Example 122]: the Ki lay within 0.2 to 10 nM. In turn, `N#Cc1cccc(-c2ccc(C3(CNC(=O)Cc4cc(F)cc(F)c4)CCN(CC4CC4)CC3)cc2)c1` [Example 10, N-[4-(3′-Cyano-biphenyl-4-yl)-1-cyclopropylmethyl-piperidin-4-ylmethyl]-2-(3.5-difluoro-phenyl)-acetamide] had an inhibition constant Ki of 101 to 5500 nM.

`CC(C)CN1CCC(CNC(=O)Nc2cc(Cl)cc(Cl)c2)(c2ccc(-c3cccc(C#N)c3)cc2)CC1` [Example 7, 1-[4-(3′-Cyano-biphenyl-4-yl)-1-isobutyl-piperidin-4-ylmethyl]-3-(3,5-dichloro-phenyl)-urea] had a Ki of 11 to 100 nM.

As to `Cc1ccc(C2(CNC(=O)Nc3cc(Cl)cc(Cl)c3)CCNCC2)cc1` [Example 23], the Ki fell in the range of 101 to 5500 nM. `COCCN1CCC(CNCc2cc(Cl)cc(Cl)c2)(c2ccc(-c3cccc(Cl)c3)cc2)CC1` [Example 129] had a Ki of 101 to 5500 nM. The value for `CN1CCC(CNC(=O)Nc2cc(C(F)(F)F)ccc2Cl)(c2ccc(-c3cccc(Cl)c3)cc2)CC1` [Example 57] was 11 to 100 nM; that for `N#Cc1cccc(-c2ccc(C3(CNC(=O)Nc4ccc5c(c4)OCO5)CCN(CC4CC4)CC3)cc2)c1` [Example 98] was 11 to 100 nM; that for `O=C(Nc1cc(Cl)cc(Cl)c1)N1CCC(CN(CC2CC2)CC2CC2)(c2ccc(-c3cccc(Cl)c3)cc2)CC1` [Example 126] was 101 to 5500 nM.

In turn, `CCCN1CCC(CNC(=O)Nc2ccc(Cl)c(C(F)(F)F)c2)(c2ccc(-c3cccc(Cl)c3)cc2)CC1` [Example 64] returned a Ki of 11 to 100 nM. The value for `CCCN1CCC2(CC1)CN(C(=O)Nc1ccc(Cl)c(Cl)c1)c1ccc(-c3cccc(C#N)c3)cc12` [Example 45] was 101 to 5500 nM; that for `CN1CCC(CNC(=O)c2cc(Cl)cc(Cl)c2)(c2ccc(-c3cccc(Cl)c3)cc2)CC1` [Example 72] was 101 to 5500 nM. For the compound `CCCN1CCC(CNC(=O)Nc2cc(C(F)(F)F)ccc2Cl)(c2ccc(-c3cccc(C#N)c3)cc2)CC1` [Example 63], the Ki fell in the range of 11 to 100 nM. Take `Cc1ccc(C2(CNC(=O)Nc3cc(Cl)cc(Cl)c3)CCN(C3CCCC3)CC2)cc1` [Example 26]: the Ki was 101 to 5500 nM. The value for `CCCN1CCC(CNC(=O)Nc2ccc(F)c(Cl)c2)(c2ccc(-c3cccc(C#N)c3)cc2)CC1` [Example 65] was 0.2 to 10 nM; that for `CC(C)N1CCC(CNC(=O)Nc2cc(Cl)cc(Cl)c2)(c2ccc(-c3ccc4c(c3)OCO4)cc2)CC1` [Example 82] was 0.2 to 10 nM. In the case of `CCCN(CCC)CC1(c2ccc(-c3cccc(C#N)c3)cc2)CCN(C(=O)Nc2cc(Cl)cc(Cl)c2)CC1` [Example 133], the Ki lay within 101 to 5500 nM. The value for `N#Cc1cccc(-c2ccc(C3(CNCC4CC4)CCN(C(=O)Nc4cc(Cl)cc(Cl)c4)CC3)cc2)c1` [Example 131] was 11 to 100 nM; that for `COCCN1CCC(CNC(=O)Nc2cc(Cl)cc(Cl)c2)(c2ccc(-c3cccc(Cl)c3)cc2)CC1` [Example 35] was 0.2 to 10 nM; that for `O=C(NCC1(c2ccc(-c3cccc(Cl)c3)cc2)CCN(CC2CC2)CC1)Nc1cc(C(F)(F)F)ccc1Cl` [Example 73] was 101 to 5500 nM. For the compound `CN1CCC(CNC(=O)Nc2cc(Cl)cc(Cl)c2)(c2ccc(-c3cccc(N)c3)cc2)CC1` [Example 41], the Ki fell in the range of 11 to 100 nM. In turn, `CN(CC1(c2ccc(-c3cccc(C#N)c3)cc2)CCN(CC2CC2)CC1)C(=O)Nc1ccc(F)c(Cl)c1` [Example 99] gave a Ki of 11 to 100 nM. `N#Cc1cccc(-c2ccc(C3(CNC(=O)Nc4ccc(Cl)c(C(F)(F)F)c4)CCN(CC4CC4)CC3)cc2)c1` [Example 50]: the Ki fell in the range of 0.2 to 10 nM.
